Source: PMC10847306, “The antibacterial activity and mechanism of a novel peptide MR-22 against multidrug-resistant Escherichia coli” (Frontiers in Cellular and Infection Microbiology, 2024)
≈ marks a conversion by molar mass, not a printed value.

Key:
Assay in all cases: microbe, parasite or virus in culture
[1] = tested on: E. coli clinical strain E05; details: for MIC: Escherichia coli, 18 h; for susceptibility category (S/I/R) given with the MIC: strain E05
Protocol: (§1) The clinical strains used in this study were obtained from a tertiary healthcare facility located in Guiyang, a city situated within the Guizhou Province of China. The E. coli ATCC 25922 was obtained from the Key and Characteristic Laboratory of Modern Pathogen Biology at Guizhou Medical University in Guiyang, China. All strains were stored at –80°C in LB medium and routinely cultured at LB medium at 37°C.
(§2) The MIC were determined by a micro dilution method in Mueller-Hinton broth (MHB) ([Cuenca-Estrella et al., 2010]). The final concentration of bacterial suspension in MHB were 1.0×10^6 CFU/mL. The final concentration of MR-22 ranged 1 ~ 256 μg/mL in 96 wells plate broth at 37°C for 16~18 h. Imipenem was employed as positive control, bacterial grown without treatment as negative control and MHB as blank control. MIC determination was performed by reading the OD600 nm. Take 100 μL samples in holes that have never seen bacterial growth and place them on the LB agar board. The concentration of MR-22 with no bacterial growth was defined as the MBC.

[2] = tested on: E. coli clinical strain E07; details: for MIC: Escherichia coli, 18 h; for susceptibility category (S/I/R) given with the MIC: strain E07
Protocol: as §1, §2

[3] = tested on: E. coli clinical strain E14; details: for MIC: Escherichia coli, 18 h; for susceptibility category (S/I/R) given with the MIC: strain E14
Protocol: as §1, §2

[4] = tested on: E. coli clinical strain E20; details: for MIC: Escherichia coli, 18 h; for susceptibility category (S/I/R) given with the MIC: strain E20
Protocol: as §1, §2

[5] = tested on: E. coli clinical strain E15; details: for MIC: Escherichia coli, 18 h; for susceptibility category (S/I/R) given with the MIC: strain E15
Protocol: as §1, §2

[6] = tested on: E. coli clinical strain E02; details: for MIC: Escherichia coli, 18 h; for susceptibility category (S/I/R) given with the MIC: strain E02
Protocol: as §1, §2

[7] = tested on: E. coli clinical strain E04; details: for MIC: Escherichia coli, 18 h; for susceptibility category (S/I/R) given with the MIC: strain E04
Protocol: as §1, §2

[8] = tested on: E. coli clinical strain E01; details: for MIC: Escherichia coli, 18 h; for susceptibility category (S/I/R) given with the MIC: strain E01
Protocol: as §1, §2

[9] = tested on: E. coli clinical strain E22; details: for MIC: Escherichia coli, 18 h; for susceptibility category (S/I/R) given with the MIC: strain E22
Protocol: as §1, §2

[10] = tested on: E. coli clinical strain E18; details: for MIC: Escherichia coli, 18 h; for susceptibility category (S/I/R) given with the MIC: strain E18
Protocol: as §1, §2

[11] = tested on: E. coli clinical strain E11; details: for MIC: Escherichia coli, 18 h; for susceptibility category (S/I/R) given with the MIC: strain E11
Protocol: as §1, §2

[12] = tested on: E. coli clinical strain E21; details: for MIC: Escherichia coli, 18 h; for susceptibility category (S/I/R) given with the MIC: strain E21
Protocol: as §1, §2

[13] = tested on: E. coli clinical strain E09; details: for MIC: Escherichia coli, 18 h; for susceptibility category (S/I/R) given with the MIC: strain E09
Protocol: as §1, §2

[14] = tested on: E. coli clinical strain E08; details: for MIC: Escherichia coli, 18 h; for susceptibility category (S/I/R) given with the MIC: strain E08
Protocol: as §1, §2

[15] = tested on: E. coli clinical strain E10; details: for MIC: Escherichia coli, 18 h; for susceptibility category (S/I/R) given with the MIC: strain E10
Protocol: as §1, §2

[16] = tested on: E. coli clinical strain E03; details: for MIC: Escherichia coli, 18 h; for susceptibility category (S/I/R) given with the MIC: strain E03
Protocol: as §1, §2

[17] = tested on: E. coli clinical strain E12; details: for MIC: Escherichia coli, 18 h; for susceptibility category (S/I/R) given with the MIC: strain E12
Protocol: as §1, §2

[18] = tested on: E. coli clinical strain E06; details: for MIC: Escherichia coli, 18 h; for susceptibility category (S/I/R) given with the MIC: strain E06
Protocol: as §1, §2

[19] = tested on: E. coli clinical strain E17; details: for MIC: Escherichia coli, 18 h; for susceptibility category (S/I/R) given with the MIC: strain E17
Protocol: as §1, §2

[20] = tested on: E. coli clinical strain E13; details: for MIC: Escherichia coli, 18 h; for susceptibility category (S/I/R) given with the MIC: strain E13
Protocol: as §1, §2

[21] = tested on: E. coli clinical strain E16; details: for MIC: Escherichia coli, 18 h; for susceptibility category (S/I/R) given with the MIC: strain E16
Protocol: as §1, §2

[22] = tested on: E. coli clinical strain E19; details: for MIC: Escherichia coli, 18 h; for susceptibility category (S/I/R) given with the MIC: strain E19
Protocol: as §1, §2

E. coli ATCC 25922 = details: for susceptibility category (S/I/R) given with the MIC: E. coli ATCC 25922; for MIC: Escherichia coli, ATCC25922, 18 h
Protocol: as §2

Compound: CN(C)[C@@H]1C(O)=C(C(N)=O)C(=O)[C@@]2(O)C(O)=C3C(=O)c4c(O)cccc4[C@@](C)(O)[C@H]3C[C@@H]12 [TET, tetracycline]
- MIC [1]: > 8 µg/mL
- susceptibility category (S/I/R) given with the MIC [1]: R
- MIC [2]: > 8 µg/mL
- susceptibility category (S/I/R) given with the MIC [2]: R
- MIC [3]: > 8 µg/mL
- susceptibility category (S/I/R) given with the MIC [3]: R
- MIC [4]: ≤ 0.5 µg/mL
- susceptibility category (S/I/R) given with the MIC [4]: S
- MIC [5]: ≤ 0.5 µg/mL
- susceptibility category (S/I/R) given with the MIC [5]: S
- MIC [6]: > 8 µg/mL
- susceptibility category (S/I/R) given with the MIC [6]: R
- MIC [7]: > 8 µg/mL
- susceptibility category (S/I/R) given with the MIC [7]: R
- MIC [8]: ≤ 0.5 µg/mL
- susceptibility category (S/I/R) given with the MIC [8]: S
- MIC [9]: ≤ 0.5 µg/mL
- susceptibility category (S/I/R) given with the MIC [9]: S
- MIC [10]: ≤ 0.5 µg/mL
- susceptibility category (S/I/R) given with the MIC [10]: S
- MIC [11]: > 8 µg/mL
- susceptibility category (S/I/R) given with the MIC [11]: R
- MIC [12]: ≤ 0.5 µg/mL
- susceptibility category (S/I/R) given with the MIC [12]: S
- MIC [13]: > 8 µg/mL
- susceptibility category (S/I/R) given with the MIC [13]: R
- MIC [14]: > 8 µg/mL
- susceptibility category (S/I/R) given with the MIC [14]: R
- MIC [15]: ≤ 0.5 µg/mL
- susceptibility category (S/I/R) given with the MIC [15]: S
- MIC [16]: > 8 µg/mL
- susceptibility category (S/I/R) given with the MIC [16]: R
- MIC [17]: > 8 µg/mL
- susceptibility category (S/I/R) given with the MIC [17]: R
- MIC [18]: > 8 µg/mL
- susceptibility category (S/I/R) given with the MIC [18]: R
- MIC [19]: ≤ 0.5 µg/mL
- susceptibility category (S/I/R) given with the MIC [19]: S
- MIC [20]: ≤ 0.5 µg/mL
- susceptibility category (S/I/R) given with the MIC [20]: S
- MIC [21]: ≤ 0.5 µg/mL
- susceptibility category (S/I/R) given with the MIC [21]: S
- MIC [22]: ≤ 0.5 µg/mL
- susceptibility category (S/I/R) given with the MIC [22]: S
- susceptibility category (S/I/R) given with the MIC (E. coli ATCC 25922): S
- MIC (E. coli ATCC 25922): ≤ 0.5 µg/mL

Compound: CO/N=C(\C(=O)N[C@@H]1C(=O)N2C(C(=O)[O-])=C(C[N+]3(C)CCCC3)CS[C@H]12)c1csc(N)n1 [FEP, cefepime]
- MIC [1]: > 16 µg/mL
- susceptibility category (S/I/R) given with the MIC [1]: R
- MIC [2]: > 16 µg/mL
- susceptibility category (S/I/R) given with the MIC [2]: R
- MIC [3]: 16 µg/mL (≈ 33.3 µM)
- susceptibility category (S/I/R) given with the MIC [3]: R
- MIC [4]: 16 µg/mL (≈ 33.3 µM)
- susceptibility category (S/I/R) given with the MIC [4]: R
- MIC [5]: ≤ 2 µg/mL
- susceptibility category (S/I/R) given with the MIC [5]: S
- MIC [6]: > 16 µg/mL
- susceptibility category (S/I/R) given with the MIC [6]: R
- MIC [7]: > 16 µg/mL
- susceptibility category (S/I/R) given with the MIC [7]: R
- MIC [8]: ≤ 2 µg/mL
- susceptibility category (S/I/R) given with the MIC [8]: S
- MIC [9]: ≥ 32 µg/mL
- susceptibility category (S/I/R) given with the MIC [9]: R
- MIC [10]: 16 µg/mL (≈ 33.3 µM)
- susceptibility category (S/I/R) given with the MIC [10]: R
- MIC [11]: > 16 µg/mL
- susceptibility category (S/I/R) given with the MIC [11]: R
- MIC [12]: 16 µg/mL (≈ 33.3 µM)
- susceptibility category (S/I/R) given with the MIC [12]: R
- MIC [13]: ≤ 2 µg/mL
- susceptibility category (S/I/R) given with the MIC [13]: S
- MIC [14]: ≤ 2 µg/mL
- susceptibility category (S/I/R) given with the MIC [14]: S
- MIC [15]: 16 µg/mL (≈ 33.3 µM)
- susceptibility category (S/I/R) given with the MIC [15]: R
- MIC [16]: 16 µg/mL (≈ 33.3 µM)
- susceptibility category (S/I/R) given with the MIC [16]: R
- MIC [17]: 4 µg/mL (≈ 8.32 µM)
- susceptibility category (S/I/R) given with the MIC [17]: I
- MIC [18]: > 16 µg/mL
- susceptibility category (S/I/R) given with the MIC [18]: R
- MIC [19]: ≤ 2 µg/mL
- susceptibility category (S/I/R) given with the MIC [19]: S
- MIC [20]: ≤ 2 µg/mL
- susceptibility category (S/I/R) given with the MIC [20]: S
- MIC [21]: ≤ 2 µg/mL
- susceptibility category (S/I/R) given with the MIC [21]: S
- MIC [22]: 16 µg/mL (≈ 33.3 µM)
- susceptibility category (S/I/R) given with the MIC [22]: R
- susceptibility category (S/I/R) given with the MIC (E. coli ATCC 25922): S
- MIC (E. coli ATCC 25922): ≤ 2 µg/mL
